Measured values published in PubChem BioAssay (NCI).
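Briefly, cells in 96-well plates were exposed to five compound concentrations for 48 h, and endpoints were estimated by linear interpolation. TGI denotes the concentration required for complete inhibition of growth.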

Key:
Assay in all cases: growth of human tumour cells (NCI), 48 h
[1] = test system: HOP-62 NSCLC
[2] = test system: PC-3 prostate
[3] = test system: SK-MEL-28 melanoma
[4] = test system: HL-60(TB) leukemia
[5] = test system: 786-0 renal
[6] = test system: EKVX NSCLC
[7] = test system: SR leukemia
[8] = test system: HOP-92 NSCLC
[9] = test system: NCI-H226 lung
[10] = test system: DU-145 prostate
[11] = test system: NCI-H522 lung
[12] = test system: M14 melanoma
[13] = test system: HT29 colon
[14] = test system: SF-295 CNS
[15] = test system: MDA-N
[16] = test system: SK-MEL-2 melanoma
[17] = test system: OVCAR-8 ovarian
[18] = test system: SN12C renal
[19] = test system: CAKI-1 renal
[20] = test system: SNB-19 CNS
[21] = test system: RXF 393 renal
[22] = test system: TK-10 renal
[23] = test system: ACHN renal
[24] = test system: RPMI-8226 leukemia
[25] = test system: SK-MEL-5 melanoma
[26] = test system: NCI/ADR-RES ovarian
[27] = test system: IGROV1 ovarian
[28] = test system: OVCAR-5 ovarian
[29] = test system: SK-OV-3 ovarian
[30] = test system: LOX IMVI melanoma
[31] = test system: A549 NSCLC
[32] = test system: HCT-116 colon
[33] = test system: T-47D breast
[34] = test system: K-562 leukemia
[35] = test system: HCT-15 colon
[36] = test system: OVCAR-3 ovarian
[37] = test system: UO-31 renal
[38] = test system: OVCAR-4 ovarian
[39] = test system: NCI-H23 lung
[40] = test system: CCRF-CEM leukemia
[41] = test system: UACC-62 melanoma
[42] = test system: HS 578T breast
[43] = test system: MALME-3M melanoma
[44] = test system: SW-620 colon
[45] = test system: MDA-MB-231 breast
[46] = test system: KM12 colon
[47] = test system: MCF7 breast
[48] = test system: SNB-75 CNS
[49] = test system: A498 renal
[50] = test system: NCI-H460 lung
[51] = test system: SF-268 CNS
[52] = test system: BT-549 breast
[53] = test system: MDA-MB-435
[54] = test system: U251 CNS
[55] = test system: COLO 205 colon
[56] = test system: MOLT-4 leukemia
[57] = test system: SF-539 CNS
[58] = test system: UACC-257 melanoma

Work on `O=C(O)C1(Nc2ccc(Cl)cc2)CCCC1` yielded a TGI [1] greater than 100 µM, a TGI [2] greater than 100 µM and a TGI [3] greater than 100 µM. The TGI [4] was greater than 100 µM, the TGI [5] was greater than 100 µM and the TGI [6] was greater than 100 µM. For the same compound, the TGI [7] was greater than 100 µM, the TGI [8] was greater than 100 µM and the TGI [9] was greater than 100 µM. For the same compound, the TGI [10] was greater than 100 µM, the TGI [11] was greater than 100 µM and the TGI [12] was greater than 100 µM. The TGI [13] was greater than 100 µM, the TGI [14] was greater than 100 µM and the TGI [15] was greater than 100 µM. The TGI [16] was greater than 100 µM, the TGI [17] was greater than 100 µM and the TGI [18] was greater than 100 µM. It also gave a TGI [19] greater than 100 µM, a TGI [20] greater than 100 µM and a TGI [21] greater than 100 µM. It also gave a TGI [22] greater than 100 µM, a TGI [23] greater than 100 µM and a TGI [24] greater than 100 µM. It also gave a TGI [25] greater than 100 µM, a TGI [26] greater than 100 µM and a TGI [27] greater than 100 µM. For the same compound, the TGI [28] was greater than 100 µM, the TGI [29] was greater than 100 µM and the TGI [30] was greater than 100 µM. The TGI [31] was greater than 100 µM, the TGI [32] was greater than 100 µM and the TGI [33] was greater than 100 µM. The TGI [34] was greater than 100 µM, the TGI [35] was greater than 100 µM and the TGI [36] was greater than 100 µM. The TGI [37] was greater than 100 µM, the TGI [38] was greater than 100 µM and the TGI [39] was greater than 100 µM. The TGI [40] was greater than 100 µM, the TGI [41] was greater than 100 µM and the TGI [42] was greater than 100 µM. It also gave a TGI [43] greater than 100 µM, a TGI [44] greater than 100 µM and a TGI [45] greater than 100 µM. The TGI [46] was greater than 100 µM, the TGI [47] was greater than 100 µM and the TGI [48] was greater than 100 µM. For the same compound, the TGI [49] was greater than 100 µM, the TGI [50] was greater than 100 µM and the TGI [51] was greater than 100 µM. The TGI [52] was greater than 100 µM, the TGI [53] was greater than 100 µM and the TGI [54] was greater than 100 µM. The TGI [55] was greater than 100 µM.
`NC(=O)C1CCCNC1` (stereo unspecified) gave a TGI [1] greater than 100 µM, a TGI [2] greater than 100 µM and a TGI [3] greater than 100 µM. The TGI [4] was greater than 100 µM, the TGI [5] was greater than 100 µM and the TGI [6] was greater than 100 µM. The TGI [7] was greater than 100 µM, the TGI [8] was greater than 100 µM and the TGI [9] was greater than 100 µM. It also gave a TGI [10] greater than 100 µM, a TGI [11] greater than 100 µM and a TGI [12] greater than 100 µM. It also gave a TGI [13] greater than 100 µM, a TGI [14] greater than 100 µM and a TGI [15] greater than 100 µM. For the same compound, the TGI [16] was greater than 100 µM, the TGI [17] was greater than 100 µM and the TGI [18] was greater than 100 µM. For the same compound, the TGI [19] was greater than 100 µM, the TGI [20] was greater than 100 µM and the TGI [21] was greater than 100 µM. For the same compound, the TGI [22] was greater than 100 µM, the TGI [23] was greater than 100 µM and the TGI [24] was greater than 100 µM. The TGI [25] was greater than 100 µM, the TGI [26] was greater than 100 µM and the TGI [27] was greater than 100 µM. For the same compound, the TGI [28] was greater than 100 µM, the TGI [29] was greater than 100 µM and the TGI [56] was greater than 100 µM. For the same compound, the TGI [30] was greater than 100 µM, the TGI [31] was greater than 100 µM and the TGI [32] was greater than 100 µM. The TGI [33] was greater than 100 µM, the TGI [35] was greater than 100 µM and the TGI [36] was greater than 100 µM. It also gave a TGI [37] greater than 100 µM, a TGI [38] greater than 100 µM and a TGI [39] greater than 100 µM. The TGI [40] was greater than 100 µM, the TGI [41] was greater than 100 µM and the TGI [42] was greater than 100 µM. The TGI [43] was greater than 100 µM, the TGI [44] was greater than 100 µM and the TGI [57] was greater than 100 µM. It also gave a TGI [45] greater than 100 µM, a TGI [46] greater than 100 µM and a TGI [47] greater than 100 µM. The TGI [48] was greater than 100 µM, the TGI [49] was greater than 100 µM and the TGI [50] was greater than 100 µM. For the same compound, the TGI [51] was greater than 100 µM, the TGI [52] was greater than 100 µM and the TGI [53] was greater than 100 µM. The TGI [54] was greater than 100 µM and the TGI [55] was greater than 100 µM.
Compound `CCOC(=O)CNC(=O)C(CSCC1C(=O)Nc2ccccc21)NC(=O)CCC(N)C(=O)OCC` (stereo unspecified) has a TGI [1] of 4.99 µM, a TGI [2] of 4.9 µM and a TGI [3] of 3.59 µM. The TGI [4] was 4.7 µM, the TGI [5] was 4.28 µM and the TGI [6] was 4.47 µM. It also gave a TGI [7] of 0.546 µM, a TGI [8] of 5.03 µM and a TGI [9] of 5.44 µM. The TGI [10] was 34.4 µM, the TGI [11] was 3.59 µM and the TGI [12] was 4.01 µM. The TGI [13] was 3.02 µM, the TGI [14] was 6.31 µM and the TGI [15] was 5.01 µM. It also gave a TGI [16] of 4.51 µM, a TGI [17] of 11.4 µM and a TGI [18] of 3.64 µM. It also gave a TGI [19] of 2.4 µM, a TGI [20] of 20 µM and a TGI [21] of 2.72 µM. For the same compound, the TGI [22] was 5.14 µM, the TGI [23] was 3.74 µM and the TGI [24] was 3.09 µM. For the same compound, the TGI [25] was 3.26 µM, the TGI [26] was 3.02 µM and the TGI [27] was 2.83 µM. It also gave a TGI [28] of 3.65 µM, a TGI [30] of 1.64 µM and a TGI [31] of 6.63 µM. The TGI [32] was 2.97 µM, the TGI [33] was greater than 100 µM and the TGI [34] was 0.948 µM. The TGI [35] was 2.53 µM, the TGI [36] was 5.65 µM and the TGI [37] was 2.74 µM. It also gave a TGI [58] of 14.3 µM, a TGI [38] of 9.11 µM and a TGI [39] of 5.62 µM. The TGI [40] was 0.79 µM, the TGI [41] was 2.92 µM and the TGI [42] was 17.6 µM. The TGI [43] was 4.89 µM, the TGI [44] was 2.73 µM and the TGI [57] was 0.608 µM. For the same compound, the TGI [45] was 3.48 µM, the TGI [46] was 8.33 µM and the TGI [47] was 3.46 µM. It also gave a TGI [49] of 8.19 µM, a TGI [50] of 20.9 µM and a TGI [51] of 6.44 µM. For the same compound, the TGI [52] was 7.14 µM, the TGI [53] was 3.19 µM and the TGI [54] was 2.73 µM. The TGI [55] was 2.54 µM.
